What was measured:
Format in all cases: in vivo
[1] = tested on: ducksalad (Heteranthera limosa); assay: Test B flooded paddy test, ducksalad; conditions: Flood, 250 g ai/ha, applied to paddy water, 2-leaf stage, visual evaluation after 13 to 15 d
Summary of the method: (§1)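 Rating: 0 = no effect, 100 = complete control, visual, relative to untreated plants. Conditions: 2-leaf stage, 3 cm flood kept constant, compound put directly into water, 13–15 d greenhouse.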

[2] = tested on: wheat (Triticum aestivum); assay: Test A postemergence, wheat; conditions: 0 to 100 scale
Summary of the method: (§2)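 Greenhouse evaluation: treated and untreated pots were held about 10 d, then injury was rated visually from 0 (no effect) to 100 (complete control). Application was preemergence to soil or postemergence to seedlings 2–10 cm tall, using a non-phytotoxic solvent formulation with surfactant.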

[3] = tested on: ragweed (common ragweed, Ambrosia elatior); assay: Test A postemergence, ragweed; conditions: 0 to 100 scale
Summary of the method: as §2

[4] = tested on: ragweed (common ragweed, Ambrosia elatior); assay: Test A preemergence, ragweed; conditions: 0 to 100 scale; for Ragweed plant response rating: 0 is no effect, 100 is complete control
Summary of the method: as §2

rice (Oryza sativa) = assay: Test B flooded paddy test, rice; conditions: Flood, 250 g ai/ha, applied to paddy water, 2-leaf stage, visual evaluation after 13 to 15 d
Summary of the method: as §1

[5] = tested on: blackgrass (Alopecurus myosuroides); assay: Test A postemergence, blackgrass; conditions: 0 to 100 scale
Summary of the method: as §2

[6] = tested on: pigweed (Amaranthus retroflexus); assay: Test A postemergence, pigweed; conditions: 0 to 100 scale
Summary of the method: as §2

[7] = tested on: barnyardgrass (Echinochloa crus-galli); assay: Test A preemergence, barnyardgrass; conditions: 0 to 100 scale; for Barnyardgrass plant response rating: 0 is no effect, 100 is complete control
Summary of the method: as §2

kochia (Kochia scoparia) [8] = assay: Test A postemergence, kochia; conditions: 0 to 100 scale
Summary of the method: as §2

corn (Zea mays) = assay: Test A postemergence, corn; conditions: 0 to 100 scale
Summary of the method: as §2

[9] = tested on: ryegrass, Italian (Lolium multiflorum); assay: Test A postemergence, Italian ryegrass; conditions: 0 to 100 scale
Summary of the method: as §2

[10] = tested on: ryegrass, Italian (Lolium multiflorum); assay: Test A preemergence, Italian ryegrass; conditions: 0 to 100 scale; for Ryegrass, Italian plant response rating: 0 is no effect, 100 is complete control
Summary of the method: as §2

[11] = tested on: barnyardgrass (Echinochloa crus-galli); assay: Test B flooded paddy test, barnyardgrass; conditions: Flood, 250 g ai/ha, applied to paddy water, 2-leaf stage, visual evaluation after 13 to 15 d
Summary of the method: as §1

[12] = tested on: pigweed (Amaranthus retroflexus); assay: Test A preemergence, pigweed; conditions: 0 to 100 scale; for Pigweed plant response rating: 0 is no effect, 100 is complete control
Summary of the method: as §2

[13] = tested on: barnyardgrass (Echinochloa crus-galli); assay: Test A postemergence, barnyardgrass; conditions: 0 to 100 scale
Summary of the method: as §2

[14] = tested on: galium (catchweed bedstraw, Galium aparine); assay: Test A postemergence, galium; conditions: 0 to 100 scale
Summary of the method: as §2

[15] = tested on: foxtail, giant (Setaria faberii); assay: Test A preemergence, giant foxtail; conditions: 0 to 100 scale; for Foxtail, Giant plant response rating: 0 is no effect, 100 is complete control
Summary of the method: as §2

[16] = tested on: sedge, umbrella (small-flower umbrella sedge, Cyperus difformis); assay: Test B flooded paddy test, umbrella sedge; conditions: Flood, 250 g ai/ha, applied to paddy water, 2-leaf stage, visual evaluation after 13 to 15 d
Summary of the method: as §1

[17] = tested on: foxtail, giant (Setaria faberii); assay: Test A postemergence, giant foxtail; conditions: 0 to 100 scale
Summary of the method: as §2

kochia (Kochia scoparia) [18] = assay: Test A preemergence, kochia; conditions: 0 to 100 scale; for Kochia plant response rating: 0 is no effect, 100 is complete control
Summary of the method: as §2

[19] = 31 g ai/ha, 0 no effect, 100 complete control
[20] = 125 g ai/ha, 0 no effect, 100 complete control
[21] = 500 g ai/ha, 0 is no effect, 100 is complete control

## CC(F)c1nc(N[C@H](C)c2cc3ccccc3s2)nc(N)c1C(F)(F)F (stereo partly drawn) [Compound 108]
[1]
  Plant response rating, Ducksalad (0 to 100 scale, 0 is no effect, 100 is complete control): 30
[2]; [19]
  Plant response rating, Wheat: 0
[2]; [20]
  Plant response rating, Wheat: 0
[3]; [19]
  Plant response rating, Ragweed: 30
[3]; [20]
  Plant response rating, Ragweed: 50
[4]; 31 g ai/ha
  Ragweed plant response rating: 50
[4]; 125 g ai/ha
  Ragweed plant response rating: 70
Rice (Oryza sativa)
  Plant response rating, Rice (0 to 100 scale, 0 is no effect, 100 is complete control): 0
[5]; [19]
  Plant response rating, Blackgrass: 0
[5]; [20]
  Plant response rating, Blackgrass: 0
[6]; [19]
  Plant response rating, Pigweed: 70
[6]; [20]
  Plant response rating, Pigweed: 90
[7]; 31 g ai/ha
  Barnyardgrass plant response rating: 40
[7]; 125 g ai/ha
  Barnyardgrass plant response rating: 30
Kochia (Kochia scoparia) [8]; [19]
  Plant response rating, Kochia: 40
Kochia (Kochia scoparia) [8]; [20]
  Plant response rating, Kochia: 70
Corn (Zea mays); [19]
  Plant response rating, Corn: 0
Corn (Zea mays); [20]
  Plant response rating, Corn: 10
[9]; [19]
  Plant response rating, Ryegrass, Italian: 0
[9]; [20]
  Plant response rating, Ryegrass, Italian: 50
[10]; 31 g ai/ha
  Ryegrass, Italian plant response rating: 0
[10]; 125 g ai/ha
  Ryegrass, Italian plant response rating: 30
[11]
  Plant response rating, Barnyardgrass (0 to 100 scale, 0 is no effect, 100 is complete control): 35
[12]; 31 g ai/ha
  Pigweed plant response rating: 70
[12]; 125 g ai/ha
  Pigweed plant response rating: 90
[13]; [19]
  Plant response rating, Barnyardgrass: 20
[13]; [20]
  Plant response rating, Barnyardgrass: 0
[14]; [19]
  Plant response rating, Galium: 50
[14]; [20]
  Plant response rating, Galium: 70
[15]; 31 g ai/ha
  Foxtail, Giant plant response rating: 30
[15]; 125 g ai/ha
  Foxtail, Giant plant response rating: 30
[16]
  Plant response rating, Sedge, Umbrella (0 to 100 scale, 0 is no effect, 100 is complete control): 75
[17]; [19]
  Plant response rating, Foxtail, Giant: 0
[17]; [20]
  Plant response rating, Foxtail, Giant: 20
Kochia (Kochia scoparia) [18]; 31 g ai/ha
  Kochia plant response rating: 90
Kochia (Kochia scoparia) [18]; 125 g ai/ha
  Kochia plant response rating: 90

## CC[C@@H](Nc1ncc(C(F)(F)F)c(N)n1)c1cc2ccc(F)cc2s1 [Compound 48]
[1]
  Plant response rating, Ducksalad (0 to 100 scale, 0 is no effect, 100 is complete control): 0
[2]; [20]
  Plant response rating, Wheat: 0
[2]; [21]
  Wheat plant response rating: 0
[3]; [20]
  Plant response rating, Ragweed: 20
[3]; [21]
  Ragweed plant response rating: 70
[4]; 125 g ai/ha
  Ragweed plant response rating: 30
[4]; 500 g ai/ha
  Ragweed plant response rating: 100
Rice (Oryza sativa)
  Plant response rating, Rice (0 to 100 scale, 0 is no effect, 100 is complete control): 0
[5]; [20]
  Plant response rating, Blackgrass: 30
[5]; [21]
  Blackgrass plant response rating: 30
[6]; [20]
  Plant response rating, Pigweed: 90
[6]; [21]
  Pigweed plant response rating: 100
[7]; 125 g ai/ha
  Barnyardgrass plant response rating: 0
[7]; 500 g ai/ha
  Barnyardgrass plant response rating: 40
Kochia (Kochia scoparia) [8]; [20]
  Plant response rating, Kochia: 30
Kochia (Kochia scoparia) [8]; [21]
  Kochia plant response rating: 90
Corn (Zea mays); [20]
  Plant response rating, Corn: 0
Corn (Zea mays); [21]
  Corn plant response rating: 30
[9]; [20]
  Plant response rating, Ryegrass, Italian: 0
[9]; [21]
  Ryegrass, Italian plant response rating: 40
[10]; 125 g ai/ha
  Ryegrass, Italian plant response rating: 0
[10]; 500 g ai/ha
  Ryegrass, Italian plant response rating: 60
[11]
  Plant response rating, Barnyardgrass (0 to 100 scale, 0 is no effect, 100 is complete control): 0
[12]; 125 g ai/ha
  Pigweed plant response rating: 60
[12]; 500 g ai/ha
  Pigweed plant response rating: 100
[13]; [20]
  Plant response rating, Barnyardgrass: 0
[13]; [21]
  Barnyardgrass plant response rating: 30
[14]; [20]
  Plant response rating, Galium: 60
[14]; [21]
  Galium plant response rating: 90
[15]; 125 g ai/ha
  Foxtail, Giant plant response rating: 60
[15]; 500 g ai/ha
  Foxtail, Giant plant response rating: 90
[16]
  Plant response rating, Sedge, Umbrella (0 to 100 scale, 0 is no effect, 100 is complete control): 0
[17]; [20]
  Plant response rating, Foxtail, Giant: 10
[17]; [21]
  Foxtail, Giant plant response rating: 30
Kochia (Kochia scoparia) [18]; 125 g ai/ha
  Kochia plant response rating: 0
Kochia (Kochia scoparia) [18]; 500 g ai/ha
  Kochia plant response rating: 80

## C[C@@H](Nc1ncc(C(F)(F)F)c(N)n1)c1ccc2ccccc2c1 [Compound 1]
[1]
  Plant response rating, Ducksalad (0 to 100 scale, 0 is no effect, 100 is complete control): 0
[2]; 125 g ai/ha
  Plant response rating, Wheat: 0
[2]; 500 g ai/ha
  Plant response rating, Wheat: 0
[3]; 125 g ai/ha
  Plant response rating, Ragweed: 0
[3]; 500 g ai/ha
  Plant response rating, Ragweed: 50
[4]; 125 g ai/ha
  Plant response rating, Ragweed: 0
[4]; 500 g ai/ha
  Plant response rating, Ragweed: 0
Rice (Oryza sativa)
  Plant response rating, Rice (0 to 100 scale, 0 is no effect, 100 is complete control): 0
[5]; 125 g ai/ha
  Plant response rating, Blackgrass: 0
[5]; 500 g ai/ha
  Plant response rating, Blackgrass: 0
[6]; 125 g ai/ha
  Plant response rating, Pigweed: 80
[6]; 500 g ai/ha
  Plant response rating, Pigweed: 100
[7]; 125 g ai/ha
  Plant response rating, Barnyardgrass: 0
[7]; 500 g ai/ha
  Plant response rating, Barnyardgrass: 0
Kochia (Kochia scoparia) [8]; 125 g ai/ha
  Plant response rating, Kochia: 0
Kochia (Kochia scoparia) [8]; 500 g ai/ha
  Plant response rating, Kochia: 50
Corn (Zea mays); 125 g ai/ha
  Plant response rating, Corn: 0
Corn (Zea mays); 500 g ai/ha
  Plant response rating, Corn: 0
[9]; 125 g ai/ha
  Plant response rating, Ryegrass, Italian: 0
[9]; 500 g ai/ha
  Plant response rating, Ryegrass, Italian: 20
[10]; 125 g ai/ha
  Plant response rating, Ryegrass, Italian: 0
[10]; 500 g ai/ha
  Plant response rating, Ryegrass, Italian: 0
[11]
  Plant response rating, Barnyardgrass (0 to 100 scale, 0 is no effect, 100 is complete control): 0
[12]; 125 g ai/ha
  Plant response rating, Pigweed: 10
[12]; 500 g ai/ha
  Plant response rating, Pigweed: 90
[13]; 125 g ai/ha
  Plant response rating, Barnyardgrass: 0
[13]; 500 g ai/ha
  Plant response rating, Barnyardgrass: 0
[14]; 125 g ai/ha
  Plant response rating, Galium: 30
[14]; 500 g ai/ha
  Plant response rating, Galium: 70
[15]; 125 g ai/ha
  Plant response rating, Foxtail, Giant: 0
[15]; 500 g ai/ha
  Plant response rating, Foxtail, Giant: 30
[16]
  Plant response rating, Sedge, Umbrella (0 to 100 scale, 0 is no effect, 100 is complete control): 0
[17]; 125 g ai/ha
  Plant response rating, Foxtail, Giant: 0
[17]; 500 g ai/ha
  Plant response rating, Foxtail, Giant: 0
Kochia (Kochia scoparia) [18]; 125 g ai/ha
  Plant response rating, Kochia: 0
Kochia (Kochia scoparia) [18]; 500 g ai/ha
  Plant response rating, Kochia: 10

Source: patent publication US20220119354A1, “DIAMINO-SUBSTITUTED PYRIDINES AND PYRIMIDINES AS HERBICIDES” (FMC Corporation, priority 2019, published 2022)
